Measured values published in US7211576B2, “Diaminothiazoles” (Hoffmann-La Roche Inc., priority 2004, dated 2007).

Tests used:
Type in all cases: biochemical
human cyclin D1-CDK4 = human cyclin D1-CDK4 (Homo sapiens, UniProt P11802); test: FlashPlate kinase assay, cyclin D1-CDK4; details: Rb protein substrate, 1 μM ATP, 33P-ATP, 30 minutes room temperature; read-out: CDK4 IC50
Method: To determine inhibition of Cdk4, Cdk2 and Cdk1 activity, kinase assays were conducted using FlashPlate™ assays (NEN™-Life Science Products). FlashPlate assays were performed using recombinant human cyclin B-CDK1, human cyclin E-CDK2 or human cyclin D1-CDK4 complexes. GST-cyclinE (GST-cycE), CDK2, GST-cyclinB (GST-cycB), CDK1, GST-CDK4 and cyclin D1 (cycD1) cDNA clones in baculovirus vectors were provided by Dr. W. Harper at the Baylor College of Medicine, Houston, Tex.
(§1) The expression of the 62Kd protein was under the control of an IPTG inducible promoter in an M15 E. coli strain. Cells were lysed by sonication and purification was carried out by binding lysates at pH 8.0 to a Ni-chelated agarose column pretreated with 1 mM imidazole. The resin was then washed several times with incrementally decreasing pH buffers to pH 6.0, and eluted with 500 mM imidazole. Eluted protein was dialysed against 20 mM HEPES pH 7.5, 30% glycerol, 200 mM NaCl, and 1 mM DTT. Purified Rb fusion protein stocks were quantitated for protein concentration, aliquoted, and stored at −70° C.
(§2) For all three kinase assays reported herein, 96-well FlashPlates were coated with Rb protein at 10 μg/ml, using 100 μl per well. Plates were incubated at 4° C. overnight or at room temperature for 3 hours on a shaker. To control for nonspecific phosphorylation, one row of wells was coated with 100 μl/well coating buffer (20 mM HEPES, 0.2 M NaCl). Plates were then washed twice with wash buffer (0.01% Tween 20 in phosphate-buffered saline). Compounds to be tested (“test compounds”) were added to the wells at 5× final concentration. Reactions were initiated by immediate addition of 40 μl reaction mix (25 mM HEPES, 20 mM MgCl2, 0.002% Tween 20, 2 mM DTT, 1 μM ATP, 4 nM ^33P-ATP) and a sufficient amount of enzyme to give counts that were at least 10-fold above background. Plates were incubated at room temperature on a shaker for 30 minutes. Plates were washed four times with the wash buffer, sealed, and counted on the TopCount scintillation counter (Packard Instrument Co., Downers Grove, Ill.]. The percent inhibition of Rb phosphorylation, which is a measure of the inhibition of CDK activity, was determined according to the following formula:
[formula] where “test compound” refers to the average counts per minute of the test duplicates, “nonspecific” refers to the average counts per minute when no CyclinD/Cdk4, etc., was added, and “total” refers to the average counts per minute when no compound was added.

human cyclin B-CDK1 = human cyclin B-CDK1 (Homo sapiens, UniProt P06493); test: FlashPlate kinase assay, cyclin B-CDK1; details: Rb protein substrate, 1 μM ATP, 33P-ATP, 30 minutes room temperature
Method: (§3) To determine inhibition of Cdk4, Cdk2 and Cdk1 activity, kinase assays were conducted using FlashPlate™ assays (NEN™-Life Science Products). FlashPlate assays were performed using recombinant human cyclin B-CDK1, human cyclin E-CDK2 or human cyclin D1-CDK4 complexes. GST-cyclinE (GST-cycE), CDK2, GST-cyclinB (GST-cycB), CDK1, GST-CDK4 and cyclin D1 (cycD1) cDNA clones in baculovirus vectors were provided by Dr. W. Harper at the Baylor College of Medicine, Houston, Tex. Proteins were co-expressed in High Five™ insect cells and the complex was purified on glutathione Sepharose resin (Pharmacia, Piscataway, N.J.) as previously described (Harper, J. W. et al. Cell 1993, 75, 805–816). A 6×-Histidine tagged truncated form of retinoblastoma (Rb) protein (amino acid 386–928) was used as the substrate for the cycD1-CDK4, cycB-CDK1 and the cycE-CDK2 assays (the expression plasmid was provided by Dr. Veronica Sullivan, Department of Molecular Virology, Roche Research Centre, Welwyn Garden City, United Kingdom). The Rb protein is a natural substrate for phosphorylation by CDK4, CDK2 and CDK1 (see Herwig and Strauss Eur. J. Biochem. Vol. 246 (1997) pp. 581–601 and the references cited therein).
as §1, §2
(§4) [formula] where “test compound” refers to the average counts per minute of the test duplicates, “nonspecific” refers to the average counts per minute when no CyclinD/Cdk4, etc., was added, and “total” refers to the average counts per minute when no compound was added. The IC50 value is the concentration of test compound that reduces by 50% the protein-kinase induced incorporation of the radiolabel under the test conditions described.

human cyclin E-CDK2 = human cyclin E-CDK2 (Homo sapiens, UniProt P24941); test: FlashPlate kinase assay, cyclin E-CDK2; details: Rb protein substrate, 1 μM ATP, 33P-ATP, 30 minutes room temperature
Method: as §3, §1, §2, §4

Chain of human cyclin B-CDK1 (P06493 whole entry): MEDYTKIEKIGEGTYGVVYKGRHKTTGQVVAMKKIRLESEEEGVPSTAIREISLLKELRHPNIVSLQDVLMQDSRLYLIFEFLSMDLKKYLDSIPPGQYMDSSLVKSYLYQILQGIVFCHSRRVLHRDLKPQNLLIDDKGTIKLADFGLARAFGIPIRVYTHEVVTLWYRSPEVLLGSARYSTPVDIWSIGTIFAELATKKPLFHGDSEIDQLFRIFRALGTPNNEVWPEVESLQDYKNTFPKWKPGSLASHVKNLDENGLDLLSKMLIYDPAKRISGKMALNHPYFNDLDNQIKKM
Chain of human cyclin B-CDK1 (P14635 whole entry partner): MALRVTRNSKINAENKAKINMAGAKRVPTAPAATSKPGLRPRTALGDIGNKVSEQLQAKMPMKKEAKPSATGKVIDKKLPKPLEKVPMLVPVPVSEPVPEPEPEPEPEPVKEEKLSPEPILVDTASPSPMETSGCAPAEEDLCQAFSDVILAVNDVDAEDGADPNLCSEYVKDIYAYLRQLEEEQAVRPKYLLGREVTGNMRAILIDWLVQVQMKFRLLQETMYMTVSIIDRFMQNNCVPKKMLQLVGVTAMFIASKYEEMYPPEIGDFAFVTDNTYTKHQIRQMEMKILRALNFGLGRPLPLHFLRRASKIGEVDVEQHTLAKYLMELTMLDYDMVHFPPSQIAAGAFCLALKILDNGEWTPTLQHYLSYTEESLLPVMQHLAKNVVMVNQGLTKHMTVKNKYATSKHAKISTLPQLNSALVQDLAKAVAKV
Chain of human cyclin D1-CDK4 (P11802 whole entry): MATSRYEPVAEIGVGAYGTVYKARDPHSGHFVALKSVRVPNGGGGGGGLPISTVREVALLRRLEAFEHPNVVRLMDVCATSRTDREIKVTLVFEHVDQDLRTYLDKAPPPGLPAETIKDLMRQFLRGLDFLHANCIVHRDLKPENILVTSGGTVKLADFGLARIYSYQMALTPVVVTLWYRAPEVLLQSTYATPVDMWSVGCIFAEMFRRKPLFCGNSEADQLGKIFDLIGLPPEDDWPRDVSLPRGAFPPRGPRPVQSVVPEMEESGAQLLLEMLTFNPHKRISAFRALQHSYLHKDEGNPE
Chain of human cyclin D1-CDK4 (P24385 whole entry partner): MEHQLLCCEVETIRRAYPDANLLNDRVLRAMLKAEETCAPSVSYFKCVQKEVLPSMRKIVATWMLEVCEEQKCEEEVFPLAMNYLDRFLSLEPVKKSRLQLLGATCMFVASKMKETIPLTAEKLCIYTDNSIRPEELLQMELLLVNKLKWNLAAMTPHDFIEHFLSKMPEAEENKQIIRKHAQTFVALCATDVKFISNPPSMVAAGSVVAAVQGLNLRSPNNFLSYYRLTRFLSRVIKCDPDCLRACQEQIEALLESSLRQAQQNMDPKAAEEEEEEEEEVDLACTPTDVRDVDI

Row | IC50 (human cyclin D1-CDK4) | IC50 (human cyclin B-CDK1) | IC50 (human cyclin E-CDK2) | SMILES
1 | 35 nM | 450 nM | 550 nM | Nc1nc(Nc2ccc(N3CCC(N4CCOCC4)CC3)cc2)sc1C(=O)c1cccc(F)c1 [Example 99, {4-Amino-2-[4-(4-morpholin-4-yl-piperidin-1-yl)-phenylamino]-thiazol-5-yl}-(3-fluoro-phenyl)-methanone]
2 | 8 nM | 5 nM | 136 nM | COc1cccc(C(=O)c2sc(Nc3ccc(N4CCC(N(C)C)CC4)cc3)nc2N)c1[N+](=O)[O-] [Example 49, {4-Amino-2-[4-(4-dimethylamino-piperidin-1-yl)-phenylamino]-thiazol-5-yl}-(3-methoxy-2-nitro-phenyl)-methanone]
3 | 278 nM | 4210 nM | 4170 nM | Nc1nc(Nc2ccc(N3CCC(N4CCCCC4)CC3)cc2)sc1C(=O)c1ccc(Cl)c([N+](=O)[O-])c1 [Example 62, [4-Amino-2-(4-[1,4′]bipiperidinyl-1′-yl-phenylamino)-thiazol-5-yl]-(4-chloro-3-nitro-phenyl)-methanone]
4 | 122 nM | 3730 nM | 9510 nM | CN(C)C1CCN(c2ccc(Nc3nc(N)c(C(=O)c4ccc(F)c(F)c4)s3)cc2)CC1 [Example 84, {4-Amino-2-[4-(4-dimethylamino-piperidin-1-yl)-phenylamino]-thiazol-5-yl}-(3,4-difluoro-phenyl)-methanone]
5 | 86 nM | 3560 nM | 8030 nM | Nc1nc(Nc2ccc(N3CCC(N4CCCCC4)CC3)cc2)sc1C(=O)c1cc(F)cc(F)c1 [Example 57, [4-Amino-2-(4-[1,4′]bipiperidinyl-1′-yl-phenylamino)-thiazol-5-yl]-(3,5-difluoro-phenyl)-methanone]
6 | 88 nM | 2590 nM | 8050 nM | Nc1nc(Nc2ccc(N3CCC(N4CCCC(O)C4)CC3)cc2)sc1C(=O)c1cc(F)cc(F)c1 (stereo not shown) [Example 73, {4-Amino-2-[4-(3-hydroxy-[1,4′]bipiperidinyl-1′-yl)-phenylamino]-thiazol-5-yl}-(3,5-difluoro-phenyl)-methanone]
7 | 246 nM | 2900 nM | 3710 nM | Nc1nc(Nc2ccc(N3CCC(N4CCCC(O)C4)CC3)cc2)sc1C(=O)c1ccc(Cl)c([N+](=O)[O-])c1 (stereo not shown) [Example 78, {4-Amino-2-[4-(3-hydroxy-[1,4′]bipiperidinyl-1′-yl)-phenylamino]-thiazol-5-yl}-(4-chloro-3-nitro-phenyl)-methanone]
8 | 53 nM | 1170 nM | 4180 nM | Nc1nc(Nc2ccc(N3CCC(N4CCCC4)CC3)cc2)sc1C(=O)c1ccc(O)cc1 [Example 28, {4-Amino-2-[4-(4-pyrrolidin-1-yl-piperidin-1-yl)-phenylamino]-thiazol-5-yl}-(4-hydroxy-phenyl)-methanone]
9 | 39 nM | 1280 nM | 1510 nM | Nc1nc(Nc2ccc(N3CCC(N4CCOCC4)CC3)cc2)sc1C(=O)c1cccc([N+](=O)[O-])c1 [Example 105, {4-Amino-2-[4-(4-morpholin-4-yl-piperidin-1-yl)-phenylamino]-thiazol-5-yl}-(3-nitro-phenyl)-methanone]
10 | 86 nM | 5790 nM | 5830 nM | COc1ccc(C(=O)c2sc(Nc3ccc(N4CCC(N(C)C)CC4)cc3)nc2N)cc1F [Example 42, {4-Amino-2-[4-(4-dimethylamino-piperidin-1-yl)-phenylamino]-thiazol-5-yl}-(3-fluoro-4-methoxy-phenyl)-methanone]
11 | 52 nM | 2270 nM | 4830 nM | COc1ccc(C(=O)c2sc(Nc3ccc(N4CCC(N5CCOCC5)CC4)cc3)nc2N)cc1[N+](=O)[O-] [Example 106, {4-Amino-2-[4-(4-morpholin-4-yl-piperidin-1-yl)-phenylamino]-thiazol-5-yl}-(4-methoxy-3-nitro-phenyl)-methanone]
12 | 124 nM | – | 8760 nM | Nc1nc(Nc2ccc(N3CCC(N4CCCC(O)C4)CC3)cc2)sc1C(=O)c1ccc(Cl)c(Cl)c1 (stereo not shown) [Example 76, {4-Amino-2-[4-(3-hydroxy-[1,4′]bipiperidinyl-1′-yl)-phenylamino]-thiazol-5-yl}-(3,4-dichloro-phenyl)-methanone]

The remaining lines, values behind:

Row | SMILES | IC50 (human cyclin D1-CDK4) | IC50 (human cyclin B-CDK1) | IC50 (human cyclin E-CDK2)
13 | N#Cc1cccc(C(=O)c2sc(Nc3ccc(N4CCC(N5CCCCC5)CC4)cc3)nc2N)c1 [Example 64, 3-[4-Amino-2-(4-[1,4′]bipiperidinyl-1′-yl-phenlamino)-thiazole-5-carbonyl]-benzonitrile] | 15 nM | 1280 nM | 2700 nM
14 | N#Cc1cccc(C(=O)c2sc(Nc3ccc(N4CCC(N5CCOCC5)CC4)cc3)nc2N)c1 [Example 104, 3-{4-Amino-2-[4-(4-morpholin-4-yl-piperidin-1-yl)-phenylamino]-thiazole-5-carbonyl}-benzonitrile] | 31 nM | 1280 nM | 2000 nM
15 | Nc1nc(Nc2ccc(N3CCC(N4CCCC4)CC3)cc2)sc1C(=O)c1ccc(F)c(F)c1 [Example 68, {4-Amino-2-[4-(4-pyrrolidin-1-yl-piperidin-1-yl)-phenylamino]-thiazol-5-yl}-(3,4-difluoro-phenyl)-methanone] | 89 nM | 3850 nM | 5950 nM
16 | Nc1nc(Nc2ccc(N3CCC(N4CCCC4)CC3)cc2)sc1C(=O)c1cccc(O)c1 [Example 96, {4-Amino-2-[4-(4-pyrrolidin-1-yl-piperidin-1-yl)-phenylamino]-thiazol-5-yl}-(3-hydroxy-phenyl)-methanone] | 37 nM | 1180 nM | 4060 nM
17 | COc1cccc(C(=O)c2sc(Nc3ccc(N4CCC(N5CCOCC5)CC4)cc3)nc2N)c1 [Example 102, {4-Amino-2-[4-(4-morpholin-4-yl-piperidin-1-yl)-phenylamino]-thiazol-5-yl}-(3-methoxy-phenyl)-methanone] | 29 nM | 1990 nM | 4800 nM
18 | CN(C)C1CCN(c2ccc(Nc3nc(N)c(C(=O)c4cccc(C#N)c4)s3)cc2)CC1 [Example 88, 3-{4-Amino-2-[4-(4-dimethylamino-piperidin-1-yl)-phenylamino]-thiazole-5-carbonyl}-benzonitrile] | 15 nM | 940 nM | 3910 nM
19 | Nc1nc(Nc2ccc(N3CCC(N4CCCCC4)CC3)cc2)sc1C(=O)c1ccc(O)cc1 [Example 29, [4-Amino-2-(4-[1,4′]bipiperidinyl-1′-yl-phenylamino)-thiazol-5-yl]-(4-hydroxy-phenyl)-methanone] | 55 nM | 1230 nM | 3990 nM
20 | Nc1nc(Nc2ccc(N3CCC(N4CCCCC4)CC3)cc2)sc1C(=O)c1cccc([N+](=O)[O-])c1 [Example 89, [4-Amino-2-(4-[1,4′]bipiperidinyl-1′-yl-phenylamino)-thiazol-5-yl]-(3-nitro-phenyl)-methanone] | 100 nM | 510 nM | 2260 nM
21 | Nc1nc(Nc2ccc(N3CCC(N4CCOCC4)CC3)cc2)sc1C(=O)c1ccc2c(c1)OCO2 [Example 101, {4-Amino-2-[4-(4-morpholin-4-yl-piperidin-1-yl)-phenylamino]-thiazol-5-yl}-benzo[1,3]dioxol-5-yl-methanone] | 25 nM | 580 nM | –
